How the values were obtained:
Assay type in all cases: in vivo
[1] = test system: field corn (Zea mays L., var. Dekalb 535, CORN); assay: Pre-emerge greenhouse test, crop damage rating; settings: 14 days after application, rating scale 0-100
Procedure, shortened: (§1)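 Seeds sown in sandy loam mix one day before track-sprayer application of compounds in acetone at 125–1000 g ai/ha (187 l/ha), then surface-watered to incorporate and bottom-watered. Visual rating 14 days after application on a 0–100 scale (0 = no damage, 100 = all plants dead).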

[2] = test system: upland rice (Oryza sp., var.Tebonnet, RICE); assay: Pre-emerge greenhouse test, crop damage rating; settings: 14 days after application, rating scale 0-100
Procedure, shortened: as §1

[3] = test system: common ragweed (Ambrosia artemisiifolia L., AMBEL); assay: Post-emerge greenhouse herbicide test, phytotoxicity rating; settings: 14 days after application
Procedure, shortened: (§2)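 Compounds in acetone with 0.25% v/v non-ionic surfactant were track-sprayed at 187 l/ha over plants at the 2-3 leaf stage, at 63 to 1000 g ai/ha. Pots were bottom-watered. Injury was scored visually 14 days later on a 0-100 scale, where 0 is no damage and 100 is complete plant death.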

[4] = test system: field corn (Zea mays L., var. Dekalb 535, CORN); assay: Post-emerge greenhouse test, crop damage rating; settings: 14 days after application
Procedure, shortened: as §2

[5] = test system: upland rice (Oryza sp., var.Tebonnet, RICE); assay: Post-emerge greenhouse test, crop damage rating; settings: 14 days after application
Procedure, shortened: as §2

[6] = test system: soybean (Glycine max L., var. Pella 86, SOY); assay: Post-emerge greenhouse test, crop damage rating; settings: 14 days after application
Procedure, shortened: as §2

[7] = test system: soybean (Glycine max L., var. Pella 86, SOY); assay: Pre-emerge greenhouse test, crop damage rating; settings: 14 days after application, rating scale 0-100
Procedure, shortened: as §1

[8] = test system: velvetleaf (Abutilon theophrasti, ABUTH); assay: Post-emerge greenhouse herbicide test, phytotoxicity rating; settings: 14 days after application
Procedure, shortened: as §2

[9] = test system: barnyardgrass (Echinochloa crusgalli, ECHCG); assay: as above; settings: 14 days after application
Procedure, shortened: as §2

[10] = test system: Johnsongrass (Sorghum halepense, SORHA); assay: as above; settings: 14 days after application
Procedure, shortened: as §2

[11] = test system: redroot pigweed (Amaranthus retroflexus, AMARE); assay: as above; settings: 14 days after application
Procedure, shortened: as §2

[12] = test system: ivyleaf morningglory (Ipomoea hederacea, IPOHE); assay: as above; settings: 14 days after application
Procedure, shortened: as §2

[13] = test system: lambsquarters (Chenopodium album, CHEAL); assay: as above; settings: 14 days after application
Procedure, shortened: as §2

[14] = test system: large crabgrass (Digitaria sanguinalis, DIGSA); assay: as above; settings: 14 days after application
Procedure, shortened: as §2

[15] = test system: green foxtail (Setaria viridis, SETVI); assay: as above; settings: 14 days after application
Procedure, shortened: as §2

[16] = test system: velvetleaf (Abutilon theophrasti, ABUTH); assay: Pre-emerge greenhouse herbicide test, phytotoxicity rating; settings: 14 days after application, rating scale 0-100
Procedure, shortened: as §1

[17] = test system: sicklepod (Cassia obtusifolia, CASOB); assay: as above; settings: 14 days after application, rating scale 0-100
Procedure, shortened: as §1

[18] = test system: barnyardgrass (Echinochloa crusgalli, ECHCG); assay: as above; settings: 14 days after application, rating scale 0-100
Procedure, shortened: as §1

[19] = test system: Johnsongrass (Sorghum halepense, SORHA); assay: as above; settings: 14 days after application, rating scale 0-100
Procedure, shortened: as §1

[20] = test system: redroot pigweed (Amaranthus retroflexus, AMARE); assay: as above; settings: 14 days after application, rating scale 0-100
Procedure, shortened: as §1

[21] = test system: ivyleaf morningglory (Ipomoea hederacea, IPOHE); assay: as above; settings: 14 days after application, rating scale 0-100
Procedure, shortened: as §1

[22] = test system: common ragweed (Ambrosia artemisiifolia L., AMBEL); assay: as above; settings: 14 days after application, rating scale 0-100
Procedure, shortened: as §1

[23] = test system: lambsquarters (Chenopodium album, CHEAL); assay: as above; settings: 14 days after application, rating scale 0-100
Procedure, shortened: as §1

[24] = test system: large crabgrass (Digitaria sanguinalis, DIGSA); assay: as above; settings: 14 days after application, rating scale 0-100
Procedure, shortened: as §1

[25] = test system: green foxtail (Setaria viridis, SETVI); assay: as above; settings: 14 days after application, rating scale 0-100
Procedure, shortened: as §1

O=c1n(CCCF)nnn1-c1cc(Oc2ncccc2[N+](=O)[O-])c(Cl)cc1Cl [Compound 6-3]
crop damage rating CORN ([1]; 125 g ai/ha): 30 | crop damage rating CORN ([1]; 500 g ai/ha): 10 | crop damage rating RICE ([2]; 125 g ai/ha): 20 | crop damage rating RICE ([2]; 500 g ai/ha): 20 | AMBEL phytotoxicity rating (0-100) ([3]; 63 g al/ha): 0 | AMBEL phytotoxicity rating (0-100) ([3]; 500 g al/ha): 0 | CORN crop damage rating (0-100) ([4]; 63 g al/ha): 0 | CORN crop damage rating (0-100) ([4]; 500 g al/ha): 0 | RICE crop damage rating (0-100) ([5]; 63 g al/ha): 0 | RICE crop damage rating (0-100) ([5]; 500 g al/ha): 40 | SOY crop damage rating (0-100) ([6]; 63 g al/ha): 0 | SOY crop damage rating (0-100) ([6]; 500 g al/ha): 30 | crop damage rating SOY ([7]; 125 g ai/ha): 0 | crop damage rating SOY ([7]; 500 g ai/ha): 0 | ABUTH phytotoxicity rating (0-100) ([8]; 63 g al/ha): 0 | ABUTH phytotoxicity rating (0-100) ([8]; 500 g al/ha): 20 | ECHCG phytotoxicity rating (0-100) ([9]; 63 g al/ha): 0 | ECHCG phytotoxicity rating (0-100) ([9]; 500 g al/ha): 20 | SORHA phytotoxicity rating (0-100) ([10]; 63 g al/ha): 0 | SORHA phytotoxicity rating (0-100) ([10]; 500 g al/ha): 30 | AMARE phytotoxicity rating (0-100) ([11]; 63 g al/ha): 20 | AMARE phytotoxicity rating (0-100) ([11]; 500 g al/ha): 80 | IPOHE phytotoxicity rating (0-100) ([12]; 63 g al/ha): 20 | IPOHE phytotoxicity rating (0-100) ([12]; 500 g al/ha): 70 | CHEAL phytotoxicity rating (0-100) ([13]; 63 g al/ha): 0 | CHEAL phytotoxicity rating (0-100) ([13]; 500 g al/ha): 80 | DIGSA phytotoxicity rating (0-100) ([14]; 63 g al/ha): 0 | DIGSA phytotoxicity rating (0-100) ([14]; 500 g al/ha): 0 | SETVI phytotoxicity rating (0-100) ([15]; 63 g al/ha): 0 | SETVI phytotoxicity rating (0-100) ([15]; 500 g al/ha): 30 | phytotoxicity rating ABUTH ([16]; 125 g ai/ha): 40 | phytotoxicity rating ABUTH ([16]; 500 g ai/ha): 30 | phytotoxicity rating CASOB ([17]; 125 g ai/ha): 30 | phytotoxicity rating CASOB ([17]; 500 g ai/ha): 40 | phytotoxicity rating ECHCG ([18]; 125 g ai/ha): 60 | phytotoxicity rating ECHCG ([18]; 500 g ai/ha): 0 | phytotoxicity rating SORHA ([19]; 125 g ai/ha): 30 | phytotoxicity rating SORHA ([19]; 500 g ai/ha): 0 | phytotoxicity rating AMARE ([20]; 125 g ai/ha): 0 | phytotoxicity rating AMARE ([20]; 500 g ai/ha): 90 | phytotoxicity rating IPOHE ([21]; 125 g ai/ha): 0 | phytotoxicity rating IPOHE ([21]; 500 g ai/ha): 20 | phytotoxicity rating AMBEL ([22]; 125 g ai/ha): 100 | phytotoxicity rating AMBEL ([22]; 500 g ai/ha): 40 | phytotoxicity rating CHEAL ([23]; 125 g ai/ha): 0 | phytotoxicity rating CHEAL ([23]; 500 g ai/ha): 90 | phytotoxicity rating DIGSA ([24]; 125 g ai/ha): 10 | phytotoxicity rating DIGSA ([24]; 500 g ai/ha): 50 | phytotoxicity rating SETVI ([25]; 125 g ai/ha): 99 | phytotoxicity rating SETVI ([25]; 500 g ai/ha): 70

From patent US6479435B1, “Diaryl ethers and processes for their preparation and herbicidal and desiccant compositions containing them” (ISK Americas Incorporated, priority 1997, dated 2002)
